Tested on: 922993-354-T-J3-PDC complex spheroid viability
Assay: Anticancer human tumor 922993-354-T-J3-PDC patient-derived endometrial carcinoma cell line growth inhibition [POLQ]
Conditions: for IC50: curve of first compound; for viability, T/C: stronger effect = lower value
Method in brief: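 Patient-derived tumour cells were co-cultured with HUVEC and mesenchymal stem cells as multicellular spheroids at 37 °C. They were treated with POLQ inhibitors (novobiocin, ART-558, RP6685) alone or combined with other agents. Top concentrations were at or near clinical Cmax (otherwise 10 microM; SN-38 at 1 microM), decreasing in half-log steps.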

[1] = second compound 0.0316 µM, first compound 0.0316 µM
[2] = second compound 0.0316 µM, first compound 0.1 µM
[3] = second compound 0.0316 µM, first compound 0.316 µM
[4] = second compound 0.0316 µM, first compound 1 µM
[5] = second compound 0.0316 µM, first compound 3.16 µM
[6] = second compound 0.0316 µM, first compound 10 µM
[7] = second compound 0.1 µM, first compound 0.0316 µM
[8] = second compound 0.1 µM, first compound 0.1 µM
[9] = second compound 0.1 µM, first compound 0.316 µM
[10] = second compound 0.1 µM, first compound 1 µM
[11] = second compound 0.1 µM, first compound 3.16 µM
[12] = second compound 0.1 µM, first compound 10 µM
[13] = second compound 0.316 µM, first compound 0.0316 µM
[14] = second compound 0.316 µM, first compound 0.1 µM
[15] = second compound 0.316 µM, first compound 0.316 µM
[16] = second compound 0.316 µM, first compound 1 µM
[17] = second compound 0.316 µM, first compound 3.16 µM
[18] = second compound 0.316 µM, first compound 10 µM
[19] = second compound 1 µM, first compound 0.0316 µM
[20] = second compound 1 µM, first compound 0.1 µM
[21] = second compound 1 µM, first compound 0.316 µM
[22] = second compound 1 µM, first compound 1 µM
[23] = second compound 1 µM, first compound 3.16 µM
[24] = second compound 1 µM, first compound 10 µM
[25] = second compound 3.16 µM, first compound 0.0316 µM
[26] = second compound 3.16 µM, first compound 0.1 µM
[27] = second compound 3.16 µM, first compound 0.316 µM
[28] = second compound 3.16 µM, first compound 1 µM
[29] = second compound 3.16 µM, first compound 3.16 µM
[30] = second compound 3.16 µM, first compound 10 µM
[31] = second compound 10 µM, first compound 0.0316 µM
[32] = second compound 10 µM, first compound 0.1 µM
[33] = second compound 10 µM, first compound 0.316 µM
[34] = second compound 10 µM, first compound 1 µM
[35] = second compound 10 µM, first compound 3.16 µM
[36] = second compound 10 µM, first compound 10 µM
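Further: spheroids exposed to the agents for one week.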
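Wherever viability, T/C is given: 100% = DMSO vehicle control wells.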

CC1COCCN1c1cc(C2(S(C)(=N)=O)CC2)nc(-c2ccnc3[nH]ccc23)n1 (stereo unspecified) + COC1C(OC(N)=O)C(O)C(Oc2ccc3c(O)c(NC(=O)c4ccc(O)c(CC=C(C)C)c4)c(=O)oc3c2C)OC1(C)C
IC50 (second compound 0.0316 µM): 9.95 µM | IC50 (second compound 0.1 µM): 7.81 µM | IC50 (second compound 0.316 µM): > 10 µM | IC50 (second compound 1 µM): > 10 µM | IC50 (second compound 3.16 µM): 8.35 µM | IC50 (second compound 10 µM): 8.17 µM | viability, T/C [1]: 94.7% | viability, T/C [2]: 94.6% | viability, T/C [3]: 108% | viability, T/C [4]: 105% | viability, T/C [5]: 80.4% | viability, T/C [6]: 49.8% | viability, T/C [7]: 105% | viability, T/C [8]: 92.2% | viability, T/C [9]: 95.6% | viability, T/C [10]: 93.2% | viability, T/C [11]: 80.2% | viability, T/C [12]: 41.5% | viability, T/C [13]: 81.1% | viability, T/C [14]: 105% | viability, T/C [15]: 106% | viability, T/C [16]: 101% | viability, T/C [17]: 87.2% | viability, T/C [18]: 52.5% | viability, T/C [19]: 102% | viability, T/C [20]: 101% | viability, T/C [21]: 92.5% | viability, T/C [22]: 88.6% | viability, T/C [23]: 72.6% | viability, T/C [24]: 52.8% | viability, T/C [25]: 91.8% | viability, T/C [26]: 103% | viability, T/C [27]: 103% | viability, T/C [28]: 85.7% | viability, T/C [29]: 77% | viability, T/C [30]: 44.9% | viability, T/C [31]: 89.1% | viability, T/C [32]: 84.7% | viability, T/C [33]: 96% | viability, T/C [34]: 84.2% | viability, T/C [35]: 64.7% | viability, T/C [36]: 46.9%

CCCS(=O)(=O)Nc1ccc(F)c(C(=O)c2c[nH]c3ncc(-c4ccc(Cl)cc4)cc23)c1F + COC1C(OC(N)=O)C(O)C(Oc2ccc3c(O)c(NC(=O)c4ccc(O)c(CC=C(C)C)c4)c(=O)oc3c2C)OC1(C)C
IC50 (second compound 0.0316 µM): > 10 µM | IC50 (second compound 0.1 µM): > 10 µM | IC50 (second compound 0.316 µM): > 10 µM | IC50 (second compound 1 µM): > 10 µM | IC50 (second compound 3.16 µM): > 10 µM | IC50 (second compound 10 µM): > 10 µM | viability, T/C [1]: 98.7% | viability, T/C [2]: 97% | viability, T/C [3]: 97.3% | viability, T/C [4]: 110% | viability, T/C [5]: 106% | viability, T/C [6]: 68.6% | viability, T/C [7]: 102% | viability, T/C [8]: 103% | viability, T/C [9]: 103% | viability, T/C [10]: 110% | viability, T/C [11]: 102% | viability, T/C [12]: 83.6% | viability, T/C [13]: 112% | viability, T/C [14]: 102% | viability, T/C [15]: 107% | viability, T/C [16]: 109% | viability, T/C [17]: 93% | viability, T/C [18]: 67.1% | viability, T/C [19]: 93.6% | viability, T/C [20]: 103% | viability, T/C [21]: 101% | viability, T/C [22]: 103% | viability, T/C [23]: 90.5% | viability, T/C [24]: 86.8% | viability, T/C [25]: 94.7% | viability, T/C [26]: 103% | viability, T/C [27]: 95.9% | viability, T/C [28]: 94.1% | viability, T/C [29]: 101% | viability, T/C [30]: 73.8% | viability, T/C [31]: 90% | viability, T/C [32]: 84.3% | viability, T/C [33]: 79.8% | viability, T/C [34]: 85.1% | viability, T/C [35]: 90.4% | viability, T/C [36]: 59.5%

Cn1ncnc1[C@H]1c2n[nH]c(=O)c3cc(F)cc(c23)N[C@@H]1c1ccc(F)cc1 + COC1C(OC(N)=O)C(O)C(Oc2ccc3c(O)c(NC(=O)c4ccc(O)c(CC=C(C)C)c4)c(=O)oc3c2C)OC1(C)C
IC50 (second compound 0.0316 µM): > 0.1 µM | IC50 (second compound 0.1 µM): > 0.1 µM | IC50 (second compound 0.316 µM): > 0.1 µM | IC50 (second compound 1 µM): > 0.1 µM | IC50 (second compound 3.16 µM): > 0.1 µM | IC50 (second compound 10 µM): > 0.1 µM | viability, T/C (second compound 0.0316 µM, first compound 0.000316 µM): 109% | viability, T/C (second compound 0.0316 µM, first compound 0.001 µM): 93.7% | viability, T/C (second compound 0.0316 µM, first compound 0.00316 µM): 98.5% | viability, T/C (second compound 0.0316 µM, first compound 0.01 µM): 104% | viability, T/C [1]: 91.8% | viability, T/C [2]: 74% | viability, T/C (second compound 0.1 µM, first compound 0.000316 µM): 107% | viability, T/C (second compound 0.1 µM, first compound 0.001 µM): 102% | viability, T/C (second compound 0.1 µM, first compound 0.00316 µM): 105% | viability, T/C (second compound 0.1 µM, first compound 0.01 µM): 99.9% | viability, T/C [7]: 96.8% | viability, T/C [8]: 79.8% | viability, T/C (second compound 0.316 µM, first compound 0.000316 µM): 108% | viability, T/C (second compound 0.316 µM, first compound 0.001 µM): 107% | viability, T/C (second compound 0.316 µM, first compound 0.00316 µM): 115% | viability, T/C (second compound 0.316 µM, first compound 0.01 µM): 98% | viability, T/C [13]: 96.6% | viability, T/C [14]: 86.1% | viability, T/C (second compound 1 µM, first compound 0.000316 µM): 105% | viability, T/C (second compound 1 µM, first compound 0.001 µM): 98.6% | viability, T/C (second compound 1 µM, first compound 0.00316 µM): 91.7% | viability, T/C (second compound 1 µM, first compound 0.01 µM): 105% | viability, T/C [19]: 94.6% | viability, T/C [20]: 84.5% | viability, T/C (second compound 3.16 µM, first compound 0.000316 µM): 93.7% | viability, T/C (second compound 3.16 µM, first compound 0.001 µM): 89.9% | viability, T/C (second compound 3.16 µM, first compound 0.00316 µM): 89.6% | viability, T/C (second compound 3.16 µM, first compound 0.01 µM): 86.3% | viability, T/C [25]: 102% | viability, T/C [26]: 79.4% | viability, T/C (second compound 10 µM, first compound 0.000316 µM): 88.6% | viability, T/C (second compound 10 µM, first compound 0.001 µM): 75.6% | viability, T/C (second compound 10 µM, first compound 0.00316 µM): 94.7% | viability, T/C (second compound 10 µM, first compound 0.01 µM): 85.7% | viability, T/C [31]: 87.1% | viability, T/C [32]: 70.7%

Source: PubChem BioAssay AID1963830 (Molecular Pharmacology Branch, DTP, NCI, 2024)
